From PMC10156783, “Structural basis for catalysis of human choline/ethanolamine phosphotransferase 1” (Nature Communications, 2023)

Assays:
[1] = molecular target: T1, hCEPT1 (human choline/ethanolamine phosphotransferase 1) (Homo sapiens, UniProt Q9Y6K0); experiment: isothermal titration calorimetry; cryo-EM structure of the complex; conditions: read-out: binding affinity
T1 construct: gene CEPT1
T1 sequence (Q9Y6K0 1-416): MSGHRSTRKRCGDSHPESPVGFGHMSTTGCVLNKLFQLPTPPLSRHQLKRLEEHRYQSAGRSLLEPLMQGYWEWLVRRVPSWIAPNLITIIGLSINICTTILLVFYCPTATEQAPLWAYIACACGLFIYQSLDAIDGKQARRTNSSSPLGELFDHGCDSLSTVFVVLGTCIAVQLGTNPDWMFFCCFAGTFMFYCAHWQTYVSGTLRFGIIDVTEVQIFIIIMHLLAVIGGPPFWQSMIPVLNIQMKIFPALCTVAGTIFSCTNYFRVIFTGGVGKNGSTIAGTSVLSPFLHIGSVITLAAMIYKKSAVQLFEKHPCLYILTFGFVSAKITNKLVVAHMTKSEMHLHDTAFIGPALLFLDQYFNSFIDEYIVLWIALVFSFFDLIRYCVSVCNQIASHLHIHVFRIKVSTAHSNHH

[2] = molecular target: T1, hCEPT1 (human choline/ethanolamine phosphotransferase 1); conditions: co-substrate diacylglycerol in cholate/POPC micelles; Mg2+ 20 mM; pH 8.0; 37 °C
[3] = molecular target: the molecule itself; experiment: cryo-EM structure; purified CEPT1 at about 15 mg/ml in 25 mM Tris pH 8.0, 150 mM NaCl, 0.005% GDN; alone (3.7 Å) and with 10 mM CDP-choline (3.8 Å); C2 symmetry applied, a similar map with C1

In the case of `C[N+](C)(C)CCOP(=O)(O)OP(=O)([O-])OC[C@H]1O[C@@H](n2ccc(N)nc2=O)[C@H](O)[C@@H]1O` [CDP-choline], the Kd [1] is reported as 46 µM.

In the case of `NCCOP(=O)(O)OP(=O)(O)OC[C@H]1O[C@@H](n2ccc(N)nc2=O)[C@H](O)[C@@H]1O` [CDP-ethanolamine], the “HPLC assay of CMP release” value [2] is reported as “CMP release was approximately doubled when CDP-choline was used as the substrate compared with CDP-ethanolamine”.

B1: human choline/ethanolamine phosphotransferase 1 (CEPT1), full length (enzyme, UniProt Q9Y6K0 1-416, looked up)
chain: T1 sequence (Q9Y6K0 1-416)
notes: residues 28-407 modelled in each protomer; Homodimer in the cryo-EM structures; membrane protein in GDN detergent; No removal of the tags is described; also called hCEPT1; CEPT1-A; source: FreeStyle 293-F suspension cells, transiently transfected, purified (anti-FLAG M2 resin, NTA resin, SEC in 0.005% GDN)
For B1, the “stoichiometry N” value [3] was 2.
